# Laboratory results reported in patent US9181230B2, “Morpholine compounds and uses thereof” (Hoffmann-La Roche Inc., priority 2013, dated 2015).
# Where a name gives a salt, the structure may show the parent alone.
# Legend:
# rat TAAR1 = rat TAAR1 (Rattus norvegicus (Rat), UniProt Q923Y9); experiment: Radioligand binding assay on rat TAAR1; settings: for Ki: rat TAAR1, membranes of HEK-293 cells, second value of the cell pair mouse/rat
# Experimental: (§1) For the construction of expression plasmids the coding sequences of human, rat and mouse TAAR 1 were amplified from genomic DNA essentially as described by Lindemann et al.. The Expand High Fidelity PCR System (Roche Diagnostics) was used with 1.5 mM Mg^2+ and purified PCR products were cloned into pCR2.1-TOPO cloning vector (Invitrogen) following the instructions of the manufacturer. PCR products were subcloned into the pIRESneo2 vector (BD Clontech, Palo Alto, Calif.), and expression vectors were sequence verified before introduction in cell lines.
# (§2) HEK293 cells (ATCC # CRL-1573) were cultured essentially as described by Lindemann et al. (2005). For the generation of stably transfected cell lines HEK293 cells were transfected with the pIRESneo2 expression plasmids containing the TAAR coding sequences (described above) with Lipofectamine 2000 (Invitrogen) according to the instructions of the manufacturer, and 24 hrs post transfection the culture medium was supplemented with 1 mg/ml G418 (Sigma, Buchs, Switzerland). After a culture period of about 10 d clones were isolated, expanded and tested for responsiveness to trace amines (all compounds purchased from Sigma) with the cAMP Biotrak Enzyme immunoassay (EIA) System (Amersham) following the non-acetylation EIA procedure provided by the manufacturer.
# (B) Radioligand Binding Assay on Rat TAAR1
# (§3) Membrane Preparation and Radioligand Binding.
# (§4) HEK-293 cells stably expressing rat TAAR1 were maintained at 37° C. and 5% CO2 in DMEM high glucose medium, containing fetal calf serum (10%, heat inactivated for 30 min at 56° C.), penicillin/streptomycin (1%), and 375 μg/ml geneticin (Gibco). Cells were released from culture flasks using trypsin/EDTA, harvested, washed twice with ice-cold PBS (without Ca^2+ and Mg^2+), pelleted at 1,000 rpm for 5 min at 4° C., frozen and stored at −80° C. Frozen pellets were suspended in 20 ml HEPES-NaOH (20 mM, pH 7.4) containing 10 mM EDTA and homogenized with a Polytron (PT 6000, Kinematica) at 14,000 rpm for 20 s. The homogenate was centrifuged at 48,000×g for 30 min at 4° C. Subsequently, the supernatant was removed and discarded, and the pellet resuspended in 20 ml HEPES-NaOH (20 mM, pH 7.4) containing 0.1 mM EDTA using the Polytron (20 s at 14,000 rpm). This procedure was repeated and the final pellet resuspended in HEPES-NaOH containing 0.1 mM EDTA and homogenized using the Polytron. Typically, aliquots of 2 ml membrane portions were stored at −80° C. With each new membrane batch the dissociation constant (Kd) was determined via a saturation curve. […] Nonspecific binding was defined as the amount of ^3[H]-(S)-4-[(ethyl-phenyl-amino)-methyl]-4,5-dihydro-oxazol-2-ylamine bound in the presence of 10 μM unlabeled ligand. All compounds were tested at a broad range of concentrations (10 pM to 10 μM) in duplicates. […] The 96 deep well plates were incubated for 1 hr at 4° C. Incubations were terminated by rapid filtration through Unifilter-96 plates (Packard Instrument Company) and glass filters GF/C (Perkin Elmer) presoaked for 1 hr in polyethylenimine (0.3%) and washed 3 times with 1 ml of cold binding buffer. After addition of 45 μl of Microscint 40 (PerkinElmer) the Unifilter-96 plate was sealed and after 1 hr the ratioactivity counted using a TopCount Microplate Scintillation Counter (Packard Instrument Company).
# mouse TAAR1 = mouse TAAR1 (Mus musculus (Mouse), UniProt Q923Y8); experiment: Radioligand binding assay on mouse TAAR1; settings: for Ki: mouse TAAR1, membranes of HEK-293 cells, first value of the cell pair mouse/rat
# Experimental: as §1, §2
# (A) Radioligand Binding Assay on Mouse TAAR1
# as §3
# as §4, with “expressing mouse” for “expressing rat”
# Chain of rat TAAR1 (Q923Y9 whole entry): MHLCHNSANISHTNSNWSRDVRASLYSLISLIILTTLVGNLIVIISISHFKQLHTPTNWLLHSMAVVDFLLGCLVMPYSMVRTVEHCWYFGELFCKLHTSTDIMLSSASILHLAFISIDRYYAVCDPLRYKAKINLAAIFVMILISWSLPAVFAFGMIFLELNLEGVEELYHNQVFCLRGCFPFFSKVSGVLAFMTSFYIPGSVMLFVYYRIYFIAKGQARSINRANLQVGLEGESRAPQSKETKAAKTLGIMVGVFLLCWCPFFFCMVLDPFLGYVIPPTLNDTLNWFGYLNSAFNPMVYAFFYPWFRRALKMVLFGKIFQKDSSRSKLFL
# Chain of mouse TAAR1 (Q923Y8 whole entry): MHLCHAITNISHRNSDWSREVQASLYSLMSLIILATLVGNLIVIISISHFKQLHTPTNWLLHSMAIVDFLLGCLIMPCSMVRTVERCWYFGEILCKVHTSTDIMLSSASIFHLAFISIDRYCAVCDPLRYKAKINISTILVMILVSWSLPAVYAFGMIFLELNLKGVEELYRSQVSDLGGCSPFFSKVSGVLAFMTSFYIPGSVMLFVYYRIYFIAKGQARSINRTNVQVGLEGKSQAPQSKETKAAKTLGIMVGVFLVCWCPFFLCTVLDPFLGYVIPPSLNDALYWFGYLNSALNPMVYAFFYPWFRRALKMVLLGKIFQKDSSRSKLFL
Compound,Ki (rat TAAR1),Ki (mouse TAAR1),also measured
"Fc1ccc(-c2cc(-c3ccc([C@@H]4CNCCO4)cc3F)n[nH]2)cc1 [Example 41, (R)-2-(3-Fluoro-4-(5-(4-fluorophenyl)-1H-pyrazol-3-yl)phenyl)morpholine hydrochloride]",0.0043 µM,0.0011 µM,
"Clc1ccc(-c2cc(-c3ccc([C@@H]4CNCCO4)cc3)n[nH]2)cn1 [Example 38, (R)-2-{4-[5-(6-Chloro-pyridin-3-yl)-1H-pyrazol-3-yl]-phenyl}-morpholine hydrochloride]",0.0257 µM,0.0027 µM,
"Fc1ccc(-c2nnc(-c3ccc([C@@H]4CNCCO4)cc3)o2)cc1 [Example 34, (R)-2-(4-(5-(4-Fluorophenyl)-1,3,4-oxadiazol-2-yl)phenyl)morpholine hydrochloride]",0.156 µM,0.004 µM,
"O=C(Nc1n[nH]c2cc(C3CNCCO3)ccc12)c1ccc(F)cc1 (stereo not drawn) [Example 21, 4-Fluoro-N-(6-(morpholin-2-yl)-1H-indazol-3-yl)benzamide hydrochloride]",0.895 µM,0.0617 µM,
"Clc1ccc(-c2cc(-c3ccc([C@H]4CNCCO4)cc3)n[nH]2)cn1 [Example 37, (S)-2-{4-[5-(6-Chloro-pyridin-3-yl)-1H-pyrazol-3-yl]-phenyl}-morpholine hydrochloride]",0.304 µM,0.004 µM,
"FC(F)(F)c1cnc2[nH]c3ccc([C@@H]4CNCCO4)cc3c2c1 [Example 50, (R)-2-(3-(Trifluoromethyl)-9H-pyrido[2,3-b]indol-6-yl)morpholine hydrochloride]",,,Ki (rat TAAR1; hydrochloride): 0.0303 µM; Ki (mouse TAAR1; hydrochloride): 0.0082 µM
"c1cc([C@H]2CNCCO2)ccc1-c1cc(C2CCOCC2)[nH]n1 [Example 24, (S)-2-(4-(5-(Tetrahydro-2H-pyran-4-yl)-1H-pyrazol-3-yl)phenyl)morpholine hydrochloride]",0.0722 µM,> 20 µM,
"N#Cc1cccc(-c2cc(-c3ccc(C4CNCCO4)cc3)n[nH]2)c1 (stereo not drawn) [Example 12, 3-[5-(4-Morpholin-2-yl-phenyl)-2H-pyrazol-3-yl]-benzonitrile hydrochloride]",0.0615 µM,0.0005 µM,
"Fc1ccc(-c2cc(-c3ccc([C@H]4CNCCO4)cc3)n[nH]2)cc1 [Example 29, (S)-2-(4-(5-(4-Fluorophenyl)-1H-pyrazol-3-yl)phenyl)morpholine hydrochloride]",0.0044 µM,0.0007 µM,
"FC(F)(F)c1ccc(-c2nc3ccc([C@@H]4CNCCO4)cc3o2)cn1 [Example 53, (R)-6-(Morpholin-2-yl)-2-(6-(trifluoromethyl)pyridin-3-yl)benzo[d]oxazole hydrochloride]",0.226 µM,0.0463 µM,
"Fc1ccc([C@@H]2COC(c3ccc([C@H]4CNCCO4)cc3)=N2)cc1 [Example 22, (S)-2-{4-[(R)-4-(4-Fluoro-phenyl)-4,5-dihydro-oxazol-2-yl]-phenyl}-morpholine]",1.51 µM,0.0318 µM,
"Fc1ccc(-n2cc(-c3ccc([C@@H]4CNCCO4)cc3)cn2)cc1 [Example 26, (R)-2-(4-(1-(4-Fluorophenyl)-1H-pyrazol-4-yl)phenyl)morpholine hydrochloride]",0.0122 µM,0.0006 µM,
"Fc1ccc(-c2nc(-c3ccc([C@H]4CNCCO4)cc3)n[nH]2)cc1 [Example 20, (S)-2-(4-(5-(4-Fluorophenyl)-1H-1,2,4-triazol-3-yl)phenyl)morpholine hydrochloride]",0.0779 µM,0.0012 µM,
"Clc1ccc(-c2cc(-c3ccc(C4CNCCO4)cc3)n[nH]2)cc1 (stereo not drawn) [Example 3, 2-(4-(5-(4-Chlorophenyl)-1H-pyrazol-3-yl)phenyl)morpholine hydrochloride]",0.0034 µM,0.001 µM,
"Fc1ccc(-n2cc(-c3ccc([C@H]4CNCCO4)cc3)cn2)cc1 [Example 19, (S)-2-(4-(1-(4-Fluorophenyl)-1H-pyrazol-4-yl)phenyl)morpholine hydrochloride]",0.0669 µM,0.0015 µM,
"Clc1cnc2[nH]c3ccc([C@H]4CNCCO4)cc3c2c1 [Example 47, (S)-2-(3-Chloro-9H-pyrido[2,3-b]indol-6-yl)morpholine hydrochloride]",0.075 µM,0.0032 µM,
"N#Cc1ccc(-c2cc(-c3ccc([C@H]4CNCCO4)cc3)n[nH]2)cc1 [Example 28, (S)-4-(3-(4-(Morpholin-2-yl)phenyl)-1H-pyrazol-5-yl)benzonitrile hydrochloride]",0.0168 µM,0.001 µM,
"CCN(C[C@H]1COC(N)=N1)c1ccccc1 [^3[H]-(S)-4-[(ethyl-phenyl-amino)-methyl]-4,5-dihydro-oxazol-2-ylamine, reference compound]",,,"Kd (rat TAAR1; rat TAAR1, saturation curve, usual value per membrane batch, read-out: dissociation constant (Kd) of the radioligand): ~2.3 nM; Kd (mouse TAAR1; mouse TAAR1, saturation curve, usual value per membrane batch, read-out: dissociation constant (Kd) of the radioligand): ~0.7 nM"
"Fc1ccc(-c2cc(-c3ccc([C@H]4CNCCO4)cc3F)n[nH]2)cc1 [Example 40, (S)-2-(3-Fluoro-4-(5-(4-fluorophenyl)-1H-pyrazol-3-yl)phenyl)morpholine hydrochloride]",0.0155 µM,0.0012 µM,
"Fc1ccc(-c2cc(-c3ccc(C4CNCCO4)cc3)n[nH]2)cc1 (stereo not drawn) [Example 4, 2-(4-(5-(4-Fluorophenyl)-1H-pyrazol-3-yl)phenyl)morpholine hydrochloride]",0.0059 µM,0.0012 µM,
"Clc1cccc(-c2cc(-c3ccc([C@H]4CNCCO4)cc3)n[nH]2)c1 [Example 9, (S)-2-(4-(5-(3-Chlorophenyl)-1H-pyrazol-3-yl)phenyl)morpholine hydrochloride]",0.0021 µM,0.0004 µM,
"Fc1ccc(-c2nc(-c3ccc([C@@H]4CNCCO4)cc3)n[nH]2)cc1 [Example 23, (R)-2-(4-(5-(4-Fluorophenyl)-1H-1,2,4-triazol-3-yl)phenyl)morpholine hydrochloride]",0.0196 µM,0.0015 µM,
"N#Cc1ccc(-c2cc(-c3ccc(C4CNCCO4)cc3)n[nH]2)cc1 (stereo not drawn) [Example 6, 4-(3-(4-(Morpholin-2-yl)phenyl)-1H-pyrazol-5-yl)benzonitrile hydrochloride]",0.0335 µM,0.0019 µM,
"Fc1ccc(-c2cc(-c3ccc([C@@H]4CNCCO4)cc3)n[nH]2)cc1 [Example 31, (R)-2-(4-(5-(4-Fluorophenyl)-1H-pyrazol-3-yl)phenyl)morpholine hydrochloride]",0.0036 µM,0.001 µM,
